# Patent US8158621B2, “Methods of treating or preventing autoimmune diseases with 2,4-pyrimidinediamine compounds” (Rigel Pharmaceuticals, Inc., priority 2002, dated 2012)
# pIC50: −log10 of the molar value.
# Tests used:
# [1] = tested on: cultured human mast cells (CHMC); assay: CHMC low cell density IgE activation: tryptase assay; type: cell-based
# Summary of the method: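 Low-density CHMC assay: donor-adjusted 1000-1500 cells/well, MT buffer, 1 hr 37° C preincubation; anti-IgE stimulus 30 min 37° C versus MT-only controls; supernatant tryptase by substrate, 30 min RT.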
# [2] = tested on: cultured human mast cells (CHMC); assay: CHMC low cell density ionomycin activation: tryptase assay; type: cell-based
# [3] = low cell density, read-out: CHMC anti-IgE Tryptase
# [4] = low cell density, read-out: CHMC Ionomycin Tryptase
"pIC50 [1, 3]","pIC50 [2, 4]","pIC50 ([1]; Low Density CHMC, anti-IgE activation, tryptase release, read-out: CHMC anti-IgE Tryptase IC50)","pIC50 ([2]; Low Density CHMC, ionomycin activation, tryptase release, read-out: CHMC Ionomycin Tryptase IC50)",SMILES
< 5.00,< 5.00,–,–,Fc1cnc(NC2CC2)nc1Nc1ccc(N2CCOCC2)cc1 [Compound R945357]
5.28,4.79,–,–,CNC(=O)COc1cccc(Nc2ncc(F)c(Nc3ccc4c(c3)C(N(C)C(=O)OC(C)(C)C)CCO4)n2)c1 (racemic) [Compound R950415]
6.52,< 5.00,–,–,O=C(NCCO)C1Cc2cc(Nc3ncc(F)c(Nc4ccc(OC(F)(F)F)c(Cl)c4)n3)ccc2O1 (racemic) [Compound R926959]
6.84,< 5.00,–,–,COc1cc(Nc2ncc(F)c(Nc3ccc4cc[nH]c4c3)n2)cc(OC)c1 [Compound R927089]
< 5.00,< 5.00,–,–,CC1(C)C(=O)NC(=O)c2cc(Nc3nc(N[C@@H]4CCCC[C@H]4N)ncc3F)ccc21 [Compound R950442]
5.91,5.25,–,–,Fc1cnc(Nc2ccc(Cl)c(Cl)c2)nc1NC1CCC1 [Compound R945394]
6.13,4.81,–,–,CCOC(=O)CCn1ncc2cc(Nc3ncc(F)c(Nc4ccc(OC)c(Cl)c4)n3)ccc21 [Compound R935460]
6.32,5.19,–,–,CC(C)(C)OC(=O)NC1CCOc2ccc(Nc3nc(Nc4ccc5cn[nH]c5c4)ncc3F)cc21 (racemic) [Compound R950422]
7.13,4.32,–,–,COc1cc(Nc2ncc(F)c(Nc3ccc4c(c3)NC(=O)C(CCO)O4)n2)cc(OC)c1 (racemic) [Compound R908950]
< 5.00,< 5.00,–,–,CNC(=O)n1ccc2ccc(Nc3ncc(F)c(Nc4ccc(OC)c(Cl)c4)n3)cc21 [Compound R927094]
4.30,< 5.00,–,–,CCN(CC)CCCNc1ncc(F)c(Nc2ccc3c(c2)NC(=O)[C@H](C)O3)n1 [Compound R950471]
< 5.00,< 5.00,–,–,COc1cc(Nc2ncc(F)c(Nc3ccc4c(c3)C(=O)NC(=O)C4(C)C)n2)cc(OC)c1 [Compound R909323]
6.40,< 5.00,–,–,COc1ccc(Nc2nc(Nc3ccc4cn(C)nc4c3)ncc2F)cc1Cl [Compound R935446]
4.79,< 5.00,–,–,CCN(CC)CCCNc1ncc(F)c(Nc2ccc(Cl)c(Cl)c2)n1 [Compound R950470]
5.97,4.44,–,–,CCN(CC)CCNC(=O)c1ccc(Nc2ncc(F)c(Nc3ccc4c(c3)NC(=O)C(CCO)O4)n2)cc1 (racemic) [Compound R950448]
5.93,< 5.00,–,–,Fc1cnc(Nc2ccc(N3CCOCC3)cc2)nc1NC1CC1 [Compound R945356]
6.86,5.00,–,–,COc1ccc(Nc2nc(Nc3ccc4cn[nH]c4c3)ncc2F)cc1Cl [Compound R935408]
5.06,< 5.00,–,–,NC(=O)c1ccc(Nc2ncc(F)c(Nc3ccc4c(c3)NC(=O)C(CCO)O4)n2)cc1 (racemic) [Compound R950454]
6.57,< 5.00,–,–,COc1ccc(Nc2ncc(F)c(Nc3ccc4cc[nH]c4c3)n2)cc1Cl [Compound R927091]
–,–,< 5.00,< 5.00,O=C(NNc1nc(Nc2ccc3c(c2)OCCO3)ncc1F)c1ccc2c(c1)OCO2 [Compound R926406]
5.63,< 5.00,–,–,COC(=O)COc1cccc(Nc2ncc(F)c(Nc3ccc(N4CCOCC4)cc3)n2)c1 [Compound R945361]

"pIC50 [1, 3]","pIC50 [2, 4]","pIC50 ([1]; Low Density CHMC, anti-IgE activation, tryptase release, read-out: CHMC anti-IgE Tryptase IC50)","pIC50 ([2]; Low Density CHMC, ionomycin activation, tryptase release, read-out: CHMC Ionomycin Tryptase IC50)",SMILES
5.28,< 5.00,–,–,COc1ccc(Nc2nc(Nc3cc(C)c(OC)c(Cl)c3)ncc2F)cc1Cl [Compound R926972]
6.81,< 5.00,–,–,COc1ccc(Nc2nc(Nc3cccc(OCC(=O)NCCO)c3)ncc2F)cc1Cl [Compound R926963]
5.94,< 5.00,–,–,COc1ccc(Nc2ncc(F)c(NC3CCC3)n2)cc1Cl [Compound R945395]
6.42,< 5.00,–,–,CC(=O)Nc1cccc(Nc2nc(Nc3cc(C)cc(C)c3)ncc2F)n1 [Compound R927092]
6.79,6.07,–,–,COc1ccc(Nc2ncc(F)c(Nc3ccc4c(c3)NC(=O)C(C)(C)O4)n2)cc1Cl [Compound R927097]
5.67,< 5.00,–,–,CNC(=O)COc1cccc(Nc2ncc(F)c(Nc3ccc4c(c3)[C@@H](NC(=O)OCc3ccccc3)CCO4)n2)c1 [Compound R950417]
5.85,< 5.00,–,–,CCN(CC)CCNC(=O)c1ccc(Nc2ncc(F)c(Nc3ccc4c(c3)C(=O)NC(=O)C4(C)C)n2)cc1 [Compound R950447]
5.80,< 5.00,–,–,O=C(COc1cccc(Nc2ncc(F)c(Nc3ccc(N4CCOCC4)cc3)n2)c1)NC1CCC1 [Compound R945362]
< 5.00,< 5.00,–,–,CCN(CC)CCCNc1ncc(F)c(Nc2cc(OC)cc(OC)c2)n1 [Compound R950469]
6.74,4.96,–,–,Cn1cc2ccc(Nc3ncc(F)c(Nc4ccc5c(c4)NC(=O)C(C)(C)O5)n3)cc2n1 [Compound R935445]
6.84,5.80,–,–,COc1c(Cl)cc(Nc2ncc(F)c(Nc3ccc4c(c3)NC(=O)C(C)(C)O4)n2)cc1Cl [Compound R927056]
6.43,< 5.00,–,–,COc1ccc(Nc2nc(Nc3cccc(OCC(=O)NCC(O)CO)c3)ncc2F)cc1Cl (racemic) [Compound R926964]
5.13,< 5.00,–,–,Fc1cnc(Nc2ccc(OC(F)(F)F)c(Cl)c2)nc1Nc1ccc2c(c1)OCCO2 [Compound R927085]
6.93,< 5.00,–,–,Cc1cccc(C)c1Nc1ncc(F)c(Nc2ccc3cc[nH]c3c2)n1 [Compound R927088]
6.45,< 5.00,–,–,O=C(NCC(O)CO)C1Cc2cc(Nc3ncc(F)c(Nc4ccc(OC(F)(F)F)c(Cl)c4)n3)ccc2O1 (mixture of isomers) [Compound R926958]
5.99,< 5.00,–,–,CNC(=O)COc1cccc(Nc2ncc(F)c(Nc3ccc4c(c3)C(=O)NC(=O)C4(C)C)n2)c1 [Compound R909318]
6.63,5.37,–,–,COc1c(Cl)cc(Nc2ncc(F)c(Nc3ccc4c(c3)C(N)CCO4)n2)cc1Cl (racemic) [Compound R950424]
6.84,< 5.00,–,–,OCCCn1ncc2cc(Nc3ncc(F)c(Nc4ccc(Cl)cc4)n3)ccc21 [Compound R935383]
6.29,5.33,–,–,CCOC(=O)CCn1cc2cc(Nc3ncc(F)c(Nc4ccc(Cl)c(Cl)c4)n3)ccc2n1 [Compound R935447]
6.16,< 5.00,–,–,O=C(COc1cccc(Nc2ncc(F)c(NC3CC3)n2)c1)NC1CC1 [Compound R945363]
5.21,< 5.00,–,–,CNC(=O)n1ccc2ccc(Nc3nc(Nc4ccc(OC)c(Cl)c4)ncc3F)cc21 [Compound R927100]

"pIC50 [1, 3]","pIC50 [2, 4]","pIC50 ([1]; Low Density CHMC, anti-IgE activation, tryptase release, read-out: CHMC anti-IgE Tryptase IC50)","pIC50 ([2]; Low Density CHMC, ionomycin activation, tryptase release, read-out: CHMC Ionomycin Tryptase IC50)",SMILES
6.31,< 5.00,–,–,COc1cc(Nc2nc(Nc3ccc4cn(C)nc4c3)ncc2F)ccc1F [Compound R935450]
5.88,4.92,–,–,CC(C)(C)OC(=O)NCc1ccc(Nc2ncc(F)c(Nc3ccc(Cl)c(Cl)c3)n2)cc1 [Compound R950458]
6.87,5.30,–,–,COc1ccc(Nc2nc(Nc3ccc4c(cnn4CCCO)c3)ncc2F)cc1Cl [Compound R935461]
7.09,< 5.00,–,–,O=C1COc2ccc(Nc3nc(Nc4ccc5cc[nH]c5c4)ncc3F)nc2N1 [Compound R945443]
6.33,< 5.00,–,–,COc1ccc(Nc2ncc(F)c(Nc3ccc4c(c3)OCCO4)n2)cc1Cl [Compound R927084]
6.69,< 5.00,–,–,CNC(=O)COc1cccc(Nc2ncc(F)c(Nc3ccc(OC(C)C)nc3)n2)c1 [Compound R926962]
7.19,5.46,–,–,Cc1cc(Nc2ncc(F)c(Nc3ccc4c(c3)NC(=O)C(C)(C)O4)n2)cc(C)c1Cl [Compound R927118]
6.40,< 5.00,–,–,COc1cc(Nc2ncc(F)c(Nc3cccc(NC(C)=O)n3)n2)cc(OC)c1 [Compound R927096]
5.82,< 5.00,–,–,CNC(=O)Nc1cccc(Nc2nc(Nc3cc(C)cc(C)c3)ncc2F)n1 [Compound R927098]
6.77,< 5.00,–,–,CNC(=O)COc1cccc(Nc2ncc(F)c(Nc3ccc(OCCO)c(Cl)c3)n2)c1 [Compound R927047]
6.35,< 5.00,–,–,CNC(=O)COc1cccc(Nc2ncc(F)c(Nc3ccc(OCC(=O)NC)c(Cl)c3)n2)c1 [Compound R927043]
5.87,< 5.00,–,–,CNC(=O)COc1cccc(Nc2ncc(F)c(Nc3ccc4c(c3)C(NC(=O)OC(C)(C)C)CCO4)n2)c1 (racemic) [Compound R950405]
6.75,4.06,–,–,CC1(C)Oc2ccc(Nc3ncc(F)c(Nc4ccc5cn[nH]c5c4)n3)cc2NC1=O [Compound R935440]
6.46,5.33,–,–,COc1ccc(Nc2nc(Nc3ccc4[nH]ncc4c3)ncc2F)cc1Cl [Compound R935459]
6.95,5.37,–,–,CCOC(=O)CCn1cc2cc(Nc3ncc(F)c(Nc4ccc5c(c4)NC(=O)C(C)(C)O5)n3)ccc2n1 [Compound R935448]
< 5.00,< 5.00,–,–,NC1CCCCC1Nc1ncc(F)c(Nc2ccc3c(c2)NC(=O)C(CCO)O3)n1 (stereo not shown) [Compound R950443]
4.69,< 5.00,–,–,O=C1COc2ccc(Nc3nc(Nc4cc(Cl)cc(Cl)c4)ncc3F)nc2N1 [Compound R945454]
6.27,< 5.00,–,–,CNC(=O)COc1cccc(Nc2ncc(F)c(Nc3ccc(OCc4ccccc4)c(Cl)c3)n2)c1 [Compound R926966]
4.81,< 5.00,–,–,CC(C)Oc1ccc(Nc2nc(Nc3ccc4c(c3)C[C@H](C(=O)O[C@@H]3C[C@H](C)CC[C@H]3C(C)C)O4)ncc2F)cc1 [Compound R927062]
5.02,< 5.00,–,–,CNC(=O)n1ccc2ccc(Nc3nc(Nc4cc(OC)cc(OC)c4)ncc3F)cc21 [Compound R926995]
